Reference: ChEMBL document CHEMBL1201862, “PubChem BioAssay data set” (2004)
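Growth conditions: 96-well plates. Treatment: test compound, 48 hours, 5 concentrations. Analysis: linear interpolation between bracketing concentrations; unreached endpoints set to highest concentration. Here, GI50 denotes the concentration required for 50% inhibition of growth.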 The source made the active and inactive calls. Cut-off read from the data, not from the text of the source: active = GI50 up to about 1.1 µM and inactive = higher.

What was measured:
Experiment in all cases: NCI tumour cell line growth inhibition, 48 h
MOLT-4 = tested on: MOLT-4
UO-31 = tested on: UO-31
Hs-578T = tested on: Hs-578T
CCRF-CEM = tested on: CCRF-CEM
SN12C = tested on: SN12C
NCI-H23 = tested on: NCI-H23
SF-268 = tested on: SF-268
SNB-19 = tested on: SNB-19
SK-MEL-28 = tested on: SK-MEL-28
TK-10 = tested on: TK-10
HCT-116 = tested on: HCT-116
SR = tested on: SR
CAKI-1 = tested on: CAKI-1
T47D = tested on: T47D
SK-OV-3 = tested on: SK-OV-3
UACC-62 = tested on: UACC-62
786-0 = tested on: 786-0
RPMI-8226 = tested on: RPMI-8226
SK-MEL-5 = tested on: SK-MEL-5
RXF 393 = tested on: RXF 393

Measured: GI50

CC(C)C(Br)CC/C(CBr)=C(\Cl)CCl (stereo not given)
active: MOLT-4 589 nM | CCRF-CEM 135 nM | SR 598 nM
inactive: UO-31 6710 nM | Hs-578T 3110 nM | SN12C 2990 nM | NCI-H23 3190 nM | SF-268 4370 nM | SNB-19 16900 nM | SK-MEL-28 2830 nM | TK-10 7930 nM | HCT-116 2000 nM | CAKI-1 4980 nM | T47D 1630 nM | SK-OV-3 2940 nM | UACC-62 2490 nM | 786-0 1810 nM | RPMI-8226 2000 nM | SK-MEL-5 1790 nM | RXF 393 1810 nM
